Activity calls are given as the source filed them.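 How the source made its calls: active means compounds raising the area under the GFP-over-time curve by more than 15% versus untreated cells, meaning slower Sic1 breakdown; inactive means the rest.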 Residues, ends and D or L forms follow the SMILES beside them. *: point of attachment. Cbz = O=C(OCc1ccccc1)*
Tested on: S. cerevisiae Cln2-overexpressing, Sic1-GFP degradation, flow cytometry
Experiment: Sic1-GFP degradation in Cln2-overexpressing yeast, mechanism study for 26S proteasome disassembly project, secondary assay, flow cytometry, S. cerevisiae (AID 1314)

SMILES: CC(C)C[C@@H](C=O)NC(=O)[C@H](CC(C)C)NC(=O)[C@H](CC(C)C)NC(=O)OCc1ccccc1 (Cbz-Leu-Leu-Leu-aldehyde)
- outcome: active; degradation inhibitor

SMILES: CC(=O)N1C(=O)C(=C2C=C(C)OC(C)=C2)c2ccccc21
- outcome: active; degradation inhibitor

Reference: PubChem BioAssay AID1314 (NMMLSC, 2008)
